The text below walks through data of article PMC4981696, “Non-target Site Tolerance Mechanisms Describe Tolerance to Glyphosate in Avena sterilis” (Frontiers in Plant Science, 2016).

Assay in all cases: phosphate release assay (EnzChek phosphate kit)
Details in all cases: partially purified leaf extract; 100 mM MOPS, 1 mM MgCl2, 10% glycerol, 2 mM sodium molybdate, 200 mM NaF; glyphosate 0-1000 μM; range is 95% CI; read-out: I50(μM)(95% CI)^a

Assay [1] addresses T1, EPSPS (L. rigidum S population) (Lolium rigidum, UniProt A0A5B9T5S8).
T1 sequence (A0A5B9T5S8 61-505): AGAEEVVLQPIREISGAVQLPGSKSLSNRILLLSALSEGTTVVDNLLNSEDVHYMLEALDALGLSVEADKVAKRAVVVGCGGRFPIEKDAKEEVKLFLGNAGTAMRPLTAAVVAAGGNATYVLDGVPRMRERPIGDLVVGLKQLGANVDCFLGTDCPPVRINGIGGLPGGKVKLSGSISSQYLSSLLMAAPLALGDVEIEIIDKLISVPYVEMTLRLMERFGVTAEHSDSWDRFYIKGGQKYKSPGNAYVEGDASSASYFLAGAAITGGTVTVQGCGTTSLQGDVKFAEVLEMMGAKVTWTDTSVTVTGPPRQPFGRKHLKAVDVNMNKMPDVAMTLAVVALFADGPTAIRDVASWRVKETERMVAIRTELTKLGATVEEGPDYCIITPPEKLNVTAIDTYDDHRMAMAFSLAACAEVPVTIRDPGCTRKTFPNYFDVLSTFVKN
Format: biochemical. From the text: phosphate release assay (EnzChek phosphate kit) on EPSPS (L. rigidum S population)

In assay [2] the test system is T2, EPSPS (A. sterilis UE accession).
T2 construct: homeologous copies not distinguished
It counts as biochemical, Avena sterilis. From the text:
phosphate release assay (EnzChek phosphate kit) on EPSPS (A. sterilis UE accession)

In assay [3] the test system is T3, EPSPS (A. sterilis E accession).
T3 construct: homeologous copies not distinguished
Format: biochemical, Avena sterilis. From the text:
phosphate release assay (EnzChek phosphate kit) on EPSPS (A. sterilis E accession)

Turning to `O=C(O)CNCP(=O)(O)O` [glyphosate], the IC50 in assay [1] was 5.1 µM; in assay [2], 42.4 µM; in assay [3] it was 53.5 µM.
